pIC50: −log10 of the molar value. Converted amounts (≈) assume the structure as drawn. Where two headings read alike, the source gives them in different places.
How the values were obtained:
[1] = target: PI3Ka (Homo sapiens (Human), UniProt P42336); assay: Z'-LYTE / Adapta kinase assay, PI3Ka; type: biochemical; conditions: for inhibition at 0.1 µM: read-out: PI3Ka % Inh. @ 100 nM
How it was run: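 Z'-LYTE FRET-peptide phosphorylation read as coumarin/fluorescein emission ratio (400 nm excitation); Adapta immunoassay detects ADP formation. 60-min kinase reaction, 60-min development, room temperature.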

[2] = Solubility determination (PBS 7.4, SIF, SGF); type: physicochemical; conditions: for solubility at 2 h: kinetic from dmso stock
Protocol: Preparation of stock solutions: The stock solutions of test compounds and control compound diclofenac were prepared in DMSO at the concentrations of 10 mM.
Simulated Gastric Fluid (SGF): An aqueous mixture including hydrochloric acid, sodium chloride, and pepsin (pH=1.2).
Simulated Intestinal Fluid (SIF): Prepared by dissolving 6.8 g of KH2PO4 into about 500 mL ultrapure water and adjust the solution to a pH 6.8 with 0.1 M NaOH. 10 g trypsin is then dissolved into ultrapure water. The two solutions are mixed well and diluted with ultrapure water to a final volume of 1000 mL.
485 μL of (SIF, SGF, PBS 7.4, FESSIF, or FESSGF) was added into each vial of the cap-less Solubility Sample plate. The assay was performed in duplicate. Add one stir stick to each vial and seal using a molded PTFE/Silicone plug. […] After completion of the 2 hours, plugs were removed and the stir sticks were removed using a big magnet, the samples from the Solubility Sample plate were transferred into the filter plate. Using the Vacuum Manifold, all the samples were filtered. Aliquot of 5 μL and 5 μL DMSO were taken from the filtrate followed by addition of 490 μL of a mixture of H2O and acetonitrile containing internal standard (1:1). A certain proportion of ultrapure water was used to dilute the diluent according to the peak shape. The dilution factor was changed according to the solubility values and the LC-MS signal response.
Preparation of 300 μM standards (STD): From the 10 mM DMSO STD plate, 6 μL was transferred into the remaining empty plate, and then 194 μL of DMSO was added to that plate to have a STD concentration of 300 μM. From the 300 μM DMSO STD plate, 5 μL DMSO STD and 5 μL SIF was transferred into the remaining empty plate, and then 490 μL of a mixture of H2O and acetonitrile containing internal standard (1:1) was added to that plate to have a final STD concentration of 3 μM. A certain proportion of ultrapure water was used to dilute the diluent according to the peak shape. The concentrations of the standard samples were changed according to the LC-MS signal response.
Procedure for sample analysis: The plate was placed into the well plate autosampler. The samples were evaluated by LC-MS/MS analysis.
Data analysis: All calculations were carried out using Microsoft Excel. The filtrate was analyzed and quantified against a standard of known concentration using LC coupled with mass spectral peak identification and quantitation. Solubility values of the test compound and control compound were calculated as follows: […]
Any value of the compounds that was not within the specified limits was rejected and the experiment was repeated.

[3] = aqueous buffer, PBS pH 7.4, 25° C., 2 hours, read-out: Solubility pH 7.4 PBS buffer
[4] = simulated gastric fluid (SGF), simulated gastric fluid pH 1.2, 25° C., 2 hours, read-out: Solubility SGF
[5] = simulated intestinal fluid (SIF), simulated intestinal fluid pH 6.8, 25° C., 2 hours, read-out: Solubility SIF

Sequence of PI3Ka (P42336 whole entry): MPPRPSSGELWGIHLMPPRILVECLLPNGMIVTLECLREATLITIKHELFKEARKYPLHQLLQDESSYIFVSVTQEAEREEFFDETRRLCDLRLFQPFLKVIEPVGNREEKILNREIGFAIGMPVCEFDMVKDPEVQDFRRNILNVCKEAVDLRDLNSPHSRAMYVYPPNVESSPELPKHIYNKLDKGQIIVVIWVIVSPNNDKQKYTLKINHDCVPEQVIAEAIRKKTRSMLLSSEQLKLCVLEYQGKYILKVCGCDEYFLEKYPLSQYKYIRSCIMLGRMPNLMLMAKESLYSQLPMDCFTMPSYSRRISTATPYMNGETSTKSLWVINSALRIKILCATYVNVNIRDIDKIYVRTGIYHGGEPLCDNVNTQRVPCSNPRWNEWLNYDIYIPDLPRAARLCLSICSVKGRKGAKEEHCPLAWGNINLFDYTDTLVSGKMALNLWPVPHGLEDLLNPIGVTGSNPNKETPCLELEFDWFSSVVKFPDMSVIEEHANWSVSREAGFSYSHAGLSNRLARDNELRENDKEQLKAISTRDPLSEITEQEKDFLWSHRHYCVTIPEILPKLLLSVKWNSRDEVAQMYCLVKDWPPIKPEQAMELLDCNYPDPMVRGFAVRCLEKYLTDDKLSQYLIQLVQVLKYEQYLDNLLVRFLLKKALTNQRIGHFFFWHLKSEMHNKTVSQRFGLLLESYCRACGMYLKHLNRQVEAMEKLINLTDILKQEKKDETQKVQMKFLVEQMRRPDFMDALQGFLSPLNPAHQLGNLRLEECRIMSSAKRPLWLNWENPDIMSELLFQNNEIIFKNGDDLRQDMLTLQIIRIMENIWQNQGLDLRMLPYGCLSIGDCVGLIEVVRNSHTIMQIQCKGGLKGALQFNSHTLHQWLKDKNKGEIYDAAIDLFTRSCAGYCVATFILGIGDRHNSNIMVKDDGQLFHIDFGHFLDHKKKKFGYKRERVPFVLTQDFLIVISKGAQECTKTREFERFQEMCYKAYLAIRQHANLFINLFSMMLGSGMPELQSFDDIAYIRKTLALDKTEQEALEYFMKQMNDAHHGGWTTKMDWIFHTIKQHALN
Sequence of PI3Ka (P27986 whole entry partner): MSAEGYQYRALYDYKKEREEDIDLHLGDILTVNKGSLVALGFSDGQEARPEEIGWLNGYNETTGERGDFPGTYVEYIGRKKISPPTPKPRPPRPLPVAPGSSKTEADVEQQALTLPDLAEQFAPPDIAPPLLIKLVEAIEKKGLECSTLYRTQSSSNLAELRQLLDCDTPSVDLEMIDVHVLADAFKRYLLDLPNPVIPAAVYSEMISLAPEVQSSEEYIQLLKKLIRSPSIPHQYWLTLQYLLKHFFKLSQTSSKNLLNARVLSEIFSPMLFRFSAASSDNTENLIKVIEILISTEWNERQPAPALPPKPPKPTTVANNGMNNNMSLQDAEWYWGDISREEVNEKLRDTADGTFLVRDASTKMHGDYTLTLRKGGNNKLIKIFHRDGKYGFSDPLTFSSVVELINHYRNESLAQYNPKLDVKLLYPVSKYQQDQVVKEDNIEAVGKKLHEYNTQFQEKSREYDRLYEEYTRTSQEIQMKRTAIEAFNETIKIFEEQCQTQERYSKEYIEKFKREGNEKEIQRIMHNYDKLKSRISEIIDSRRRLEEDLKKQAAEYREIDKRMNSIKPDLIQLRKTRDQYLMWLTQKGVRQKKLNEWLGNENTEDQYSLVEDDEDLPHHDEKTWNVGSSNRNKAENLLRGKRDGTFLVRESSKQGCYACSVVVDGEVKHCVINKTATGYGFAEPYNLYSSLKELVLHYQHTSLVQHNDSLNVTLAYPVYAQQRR

## CS(=O)(=O)Nc1cc(-c2ccc3ncnc(NCc4ccccc4)c3c2)cnc1Cl [Comparative Compound 1, N-[5-[4-(benzylamino)quinazolin-6-yl]-2-chloro-3-pyridyl]methanesulfonamide, reference compound]
[1]
  PI3Ka IC50 (nM): ++++ (value is 2 nM or less)
  inhibition at 0.1 µM: > 90%
[2]; [3]
  solubility at 2 h: ≤ 20 µM
[2]; [4]
  solubility at 2 h: > 200 µM
[2]; [5]
  solubility at 2 h: ≤ 20 µM

## CS(=O)(=O)Nc1cc(-c2ccc3ncnc(Nc4ccc(F)c(Cl)c4)c3c2)cnc1Cl [Comparative Compound 2, reference compound]
[1]
  PI3Ka IC50 (nM): ++++ (value is 2 nM or less)
  inhibition at 0.1 µM: > 90%
[2]; [3]
  solubility at 2 h: ≤ 20 µM
[2]; [4]
  solubility at 2 h: > 200 µM
[2]; [5]
  solubility at 2 h: ≤ 20 µM

## CS(=O)(=O)Nc1cncc(-c2ccc3ncnc(NCc4ccccc4)c3c2)c1 [Comparative Compound 3, reference compound]
[1]
  PI3Ka IC50 (nM): ++ (value is greater than 20 nM and less than or equal to 200 nM)
[1]; 100 nM
  PI3Ka % Inh. @ 100 nM: *** (value is greater than 80% and less than or equal to 90%)
[2]; simulated intestinal fluid pH 6.8, 25° C., 2 hours
  Solubility SIF: * (value is 20 μM or less)

## C[C@@H](Nc1ncnc2ccc(-c3cnc(Cl)c(NS(C)(=O)=O)c3)cc12)c1ccccc1 [Compound 2R, N-(2-chloro-5-(4-((1R-phenylethyl)amino)quinazolin-6-yl)pyridin-3-yl)methanesulfonamide]
[1]
  pIC50: 7.70 to 8.70
  inhibition at 0.1 µM: > 90%
[2]; PBS buffer
  improvement in solubility compared to Comparative Compounds 1-3: same improvement in solubility
[2]; [3]
  solubility at 2 h: 100 to 200 µM (≈ 45.4 to 90.8 µg/mL)
[2]; [4]
  solubility at 2 h: > 200 µM
[2]; simulated intestinal fluid
  improvement in solubility compared to Comparative Compounds 1-3: at least 5 times
[2]; [5]
  solubility at 2 h: 100 to 200 µM (≈ 45.4 to 90.8 µg/mL)

## C[C@H](Nc1ncnc2ccc(-c3cnc(Cl)c(NS(C)(=O)=O)c3)cc12)c1ccccc1 [Compound 2S, N-(2-chloro-5-(4-((1S-phenylethyl)amino)quinazolin-6-yl)pyridin-3-yl)methanesulfonamide]
[1]
  PI3Ka IC50 (nM): ++++ (value is 2 nM or less)
  inhibition at 0.1 µM: > 90%
[2]; simulated intestinal fluid
  improvement in solubility compared to Comparative Compounds 1-3: at least 5 times
[2]; [5]
  solubility at 2 h: 100 to 200 µM (≈ 45.4 to 90.8 µg/mL)

## CC(Nc1c(C#N)cnc2ccc(-c3cnc(N)nc3)cc12)c1ccccc1 (centres unmarked) [Compound 53, 6-(2-aminopyrimidin-5-yl)-4-(1-phenylethylamino) quinoline-3-carbonitrile]
[1]
  PI3Ka IC50 (nM): + (value is greater than 200 nM)
  inhibition at 0.1 µM: 10 to 80%
[2]; [5]
  solubility at 2 h: 20 to 100 µM (≈ 7.33 to 36.6 µg/mL)

## C[C@@H](Nc1c(C#N)cnc2ccc(-c3cnc(N)nc3)cc12)c1ccccc1 [Compound 53R, (R)-6-(2-aminopyrimidin-5-yl)-4-((1-phenylethyl)amino)quinoline-3-carbonitrile]
[1]
  PI3Ka IC50 (nM): + (value is greater than 200 nM)
  inhibition at 0.1 µM: 10 to 80%
[2]; [5]
  solubility at 2 h: 20 to 100 µM (≈ 7.33 to 36.6 µg/mL)

## CC(Nc1c(C#N)cnc2ccc(-c3cnc4[nH]ncc4c3)cc12)c1ccccc1 (centres unmarked) [Compound 54, 4-(1-phenylethylamino)-6-(1H-pyrazolo[3,4-b]pyridin-5-yl)quinoline-3-carbonitrile]
[1]
  PI3Ka IC50 (nM): + (value is greater than 200 nM)
  inhibition at 0.1 µM: 10 to 80%
[2]; [5]
  solubility at 2 h: ≤ 20 µM

## C[C@@H](Nc1ncnc2ccc(-c3cnc(Cl)c(NS(C)(=O)=O)c3)cc12)c1ccc(F)cc1 [Compound 111R, N-(2-chloro-5-(4-((1R-(4-fluorophenyl)ethyl)amino)quinazolin-6-yl)pyridin-3-yl)methanesulfonamide]
[1]
  pIC50: 7.70 to 8.70
  inhibition at 0.1 µM: > 90%
[2]; [3]
  solubility at 2 h: 20 to 100 µM (≈ 9.44 to 47.2 µg/mL)
[2]; [4]
  solubility at 2 h: > 200 µM
[2]; [5]
  solubility at 2 h: 20 to 100 µM (≈ 9.44 to 47.2 µg/mL)
